Source: ChEMBL document CHEMBL1127014, “Synthesis and evaluation of imidazo[1,5-a][1,4]benzodiazepine esters with high affinities and selectivities at "diazepam-insensitive" benzodiazepine receptors” (J Med Chem, 1993)

Key:
[1] = molecular target: T1, GABA-A receptor; anion channel (Rattus norvegicus) (UniProt O09028+P15431+P18506+P18508+P19969+P20236+P23574+P23576+P28471+P28473+P30191+P62813+P63079+P63138+Q91ZM7+Q9ES14); assay: GABA shift ratio at Diazepam sensitive fraction of GABA-A benzodiazepine receptor; assay type: protein-complex assay
[2] = molecular target: GABA-A receptor; anion channel; assay: (§1) Binding affinity for Diazepam-Sensitive fraction of GABA-A benzodiazepine receptors; assay type: protein-complex assay
[3] = molecular target: T1, GABA-A receptor; anion channel (Rattus norvegicus); assay: Selectivity for Diazepam insensitive compared to sensitive GABA-A benzodiazepine receptor fractions; assay type: protein-complex assay
[4] = molecular target: GABA-A receptor; anion channel; assay: Binding affinity for Diazepam-Insensitive fraction of GABA-A benzodiazepine receptors; assay type: protein-complex assay, Rattus norvegicus
[5] = molecular target: GABA-A receptor; anion channel; assay: as §1; assay type: protein-complex assay, Rattus norvegicus
[6] = molecular target: GABA-A receptor; anion channel; assay: Inhibition of Diazepam-Insensitive fraction of GABA-A benzodiazepine receptors; assay type: protein-complex assay, Rattus norvegicus
[7] = molecular target: GABA-A receptor; anion channel; assay: Inhibition of Diazepam-Insensitive faction of GABA-A benzodiazepine receptors; assay type: protein-complex assay, Rattus norvegicus

Compound	GABA shift [1]	Ki [2] [nM]	Ratio [3]	Ki [4] [nM]	Ki [5] [nM]	IC50 [6] [nM]	IC50 [7] [nM]
CN1Cc2c(C(=O)OC(C)(C)C)ncn2-c2ccc(N=[N+]=[N-])cc2C1=O	1.76	2.1	0.2	0.43	–	–	–
CN(C)N=Nc1ccc2c(c1)C(=O)N(C)Cc1c(C(=O)OC(C)(C)C)ncn1-2	1.12	–	–	–	3490	> 1000	–
CCOC(=O)c1ncn2c1C1CCCN1C(=O)c1cc(Cl)ccc1-2 (stereo not drawn) [RO-145975]	–	72	0.73	53	–	–	–
CN1Cc2c(C(=O)OC(C)(C)C)ncn2-c2ccc(Br)cc2C1=O	1.06	–	0.17	2.8	16	–	–
CCOC(=O)c1ncn2c1CN(C)C(=O)c1cc(Cl)ccc1-2 [Ro-151310]	–	–	–	–	5.4	–	–
CCCOC(=O)c1ncn2c1CN(C)C(=O)c1sccc1-2	–	1.4	27	38	–	–	–
COC(=O)c1ncn2c1CN(C)C(=O)c1cc(Cl)ccc1-2	–	–	–	124	–	–	–
CN1Cc2c(C(=O)OC(C)(C)C)ncn2-c2ccc([N+](=O)[O-])cc2C1=O	1.46	–	0.77	10.8	14	–	–
COC(=O)c1ncn2c1CN(C)C(=O)c1sccc1-2	–	0.9	57	52	–	–	–
CN1Cc2c(C(=O)OC(C)(C)C)ncn2-c2ccsc2C1=O [RO-194603]	–	–	13	2.6	0.2	–	–
CN1Cc2c(C(=O)OC(C)(C)C)ncn2-c2ccc(I)cc2C1=O	1.22	7	0.21	1.5	–	–	–
CCCOC(=O)c1ncn2c1CN(C)C(=O)c1cc(Cl)ccc1-2	128	24.8	1.3	33.3	–	–	–
CC(C)OC(=O)c1ncn2c1CN(C)C(=O)c1cc(Cl)ccc1-2	123	10.5	0.8	8.8	–	–	–
CN1Cc2c(C(=O)OC(C)(C)C)ncn2-c2ccccc2C1=O	105	1.1	19.2	21.2	–	–	–
CCOC(=O)c1ncn2c1CN(C)C(=O)c1ccccc1-2 [RO-147437]	98	–	165	214	1.3	–	–
COC(=O)c1ncn2c1CN(C)C(=O)c1ccccc1-2	99	–	–	–	6.3	–	> 1000
CN1Cc2c(C(=O)OCCC(C)(C)C)ncn2-c2ccc(Cl)cc2C1=O	201	184	–	–	–	> 1000	–
CN1Cc2c(C(=O)OCC3CC3)ncn2-c2ccc(Cl)cc2C1=O	176	–	4.1	39.8	9.7	–	–
CN1Cc2c(C(=O)OCC(C)(C)C)ncn2-c2ccc(Cl)cc2C1=O	177	–	0.67	300	499	–	–
CN1Cc2c(C(=O)OC(C)(C)C)ncn2-c2ccc(Cl)cc2C1=O	116	4	0.4	1.7	–	–	–
CN1Cc2c(C(=O)OC(C)(C)C)ncn2-c2ccc(N=C=S)cc2C1=O	1.35	3.7	0.73	2.7	–	–	–
CCC(CC)OC(=O)c1ncn2c1CN(C)C(=O)c1cc(Cl)ccc1-2	158	26.9	4.6	123	–	–	–
CCOC(=O)c1ncn2c1[C@@H]1CCCN1C(=O)c1ccccc1-2	–	0.9	50	45	–	–	–
